Experimental data from ChEMBL document CHEMBL1201862, “PubChem BioAssay data set” (2004).
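Five compound concentrations were applied to cells in 96-well plates for 48 hours; endpoints were derived by simple linear interpolation of the resulting dose-response curve. At the GI50, growth is halved.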 Calls of active or inactive are those of the source. No stated cut-off is given here; in the data, active = GI50 up to about 1.1 µM and inactive = higher.

Key:
Assay in all cases: NCI-60 cell line screen, 48 h
IGROV-1 = test system: IGROV-1
HCT-116 = test system: HCT-116
UACC-257 = test system: UACC-257
SK-MEL-28 = test system: SK-MEL-28
NCI-H23 = test system: NCI-H23
LOX IMVI = test system: LOX IMVI
EKVX = test system: EKVX
NCI-H226 = test system: NCI-H226
SK-OV-3 = test system: SK-OV-3
OVCAR-5 = test system: OVCAR-5
SF-295 = test system: SF-295
TK-10 = test system: TK-10
KM12 = test system: KM12
CCRF-CEM = test system: CCRF-CEM
UACC-62 = test system: UACC-62
NCI-H522 = test system: NCI-H522
NCI-H460 = test system: NCI-H460
MDA-N = test system: MDA-N
SR = test system: SR
OVCAR-4 = test system: OVCAR-4

Measured: GI50

Cc1ccc(/N=c2/oc3c(ccc4ccccc43)nc2Nc2ccc(C)cc2)cc1
inactive: IGROV-1 > 100 µM | HCT-116 > 100 µM | UACC-257 > 100 µM | SK-MEL-28 > 100 µM | NCI-H23 > 100 µM | LOX IMVI > 100 µM | EKVX > 100 µM | NCI-H226 > 100 µM | SK-OV-3 > 100 µM | OVCAR-5 > 100 µM | SF-295 > 100 µM | TK-10 > 100 µM | KM12 > 100 µM | CCRF-CEM > 100 µM | UACC-62 > 100 µM | NCI-H522 > 100 µM | NCI-H460 > 100 µM | MDA-N > 100 µM | SR 69.8 µM | OVCAR-4 > 100 µM

Cc1c2cc[n+](C)cc2c(C)c2c1oc1ccccc12
inactive: IGROV-1 4.74 µM | HCT-116 6.43 µM | UACC-257 4.29 µM | SK-MEL-28 6.85 µM | NCI-H23 2.24 µM | LOX IMVI 11.4 µM | EKVX 5.5 µM | NCI-H226 2.19 µM | SK-OV-3 14.7 µM | OVCAR-5 15.6 µM | SF-295 1.69 µM | TK-10 31.4 µM | KM12 1.62 µM | CCRF-CEM 3.18 µM | UACC-62 5.62 µM | NCI-H522 1.95 µM | NCI-H460 3.24 µM | MDA-N 11 µM | SR 4.85 µM | OVCAR-4 7.14 µM

CC(=O)Oc1ccc(OC(Oc2ccccc2)c2ccccc2)cc1 (stereo not given)
inactive: IGROV-1 32.6 µM | HCT-116 24.9 µM | UACC-257 32.2 µM | SK-MEL-28 26.2 µM | NCI-H23 17.7 µM | LOX IMVI 21.6 µM | EKVX 41.6 µM | NCI-H226 27 µM | SK-OV-3 32.6 µM | OVCAR-5 27.7 µM | SF-295 29.6 µM | TK-10 67.3 µM | KM12 23.2 µM | CCRF-CEM 27.5 µM | UACC-62 20.7 µM | NCI-H522 42.6 µM | NCI-H460 21.6 µM | MDA-N 21.3 µM | SR 14.9 µM | OVCAR-4 33.7 µM

CC(=O)O[C@H]1C(=O)[C@@]2(C)[C@H]([C@H](OC(=O)c3ccccc3)[C@]3(O)C[C@H](OC(=O)[C@H](O)[C@@H](NC(=O)c4ccccc4)c4ccccc4C)C(C)=C1C3(C)C)[C@]1(OC(C)=O)CO[C@@H]1C[C@@H]2O
inactive: SK-MEL-28 1.55 µM | EKVX 7.4 µM | NCI-H226 1.71 µM | SF-295 1.16 µM | TK-10 2.71 µM | UACC-62 1.22 µM | OVCAR-4 3.78 µM
active: IGROV-1 0.449 µM | HCT-116 0.177 µM | UACC-257 0.718 µM | NCI-H23 0.948 µM | LOX IMVI 0.631 µM | SK-OV-3 1.02 µM | OVCAR-5 0.843 µM | KM12 0.163 µM | CCRF-CEM 0.376 µM | NCI-H522 0.556 µM | NCI-H460 0.811 µM | MDA-N 0.0632 µM | SR 0.136 µM

CN(/N=C\c1ccc2ccccc2c1)C1=NCCCCN1
inactive: IGROV-1 26.5 µM | HCT-116 24.9 µM | UACC-257 16.4 µM | SK-MEL-28 15.2 µM | NCI-H23 29.8 µM | LOX IMVI 13.6 µM | EKVX 19.7 µM | NCI-H226 35.3 µM | SK-OV-3 22.1 µM | OVCAR-5 36.5 µM | SF-295 15.7 µM | TK-10 20.2 µM | KM12 20.9 µM | CCRF-CEM 23.3 µM | UACC-62 27.2 µM | NCI-H522 16.7 µM | NCI-H460 17.2 µM | MDA-N 16.3 µM | SR 21.2 µM | OVCAR-4 30.2 µM

Cc1ccc(C(=O)Oc2ccccc2)cc1/N=N/N(C)C
inactive: IGROV-1 > 100 µM | HCT-116 > 100 µM | UACC-257 > 100 µM | SK-MEL-28 > 100 µM | NCI-H23 > 58.6 µM | LOX IMVI 59.8 µM | EKVX > 100 µM | NCI-H226 > 100 µM | SK-OV-3 > 100 µM | OVCAR-5 > 100 µM | SF-295 > 69.3 µM | TK-10 > 100 µM | KM12 53.3 µM | CCRF-CEM 91.8 µM | UACC-62 > 100 µM | NCI-H522 42.7 µM | NCI-H460 > 100 µM | MDA-N > 100 µM | SR > 100 µM | OVCAR-4 > 86.9 µM

N#C/C(=C\c1cc(O)c(O)c(O)c1)C(N)=O
inactive: IGROV-1 > 100 µM | HCT-116 > 70.1 µM | UACC-257 > 100 µM | SK-MEL-28 > 100 µM | NCI-H23 > 100 µM | LOX IMVI 41.3 µM | EKVX > 91 µM | NCI-H226 > 100 µM | SK-OV-3 > 100 µM | OVCAR-5 > 100 µM | SF-295 > 100 µM | TK-10 > 100 µM | KM12 > 90.4 µM | CCRF-CEM 38.3 µM | UACC-62 72.6 µM | NCI-H522 > 66.4 µM | NCI-H460 > 79.3 µM | MDA-N > 62.4 µM | SR > 47.5 µM | OVCAR-4 74.8 µM
